Source: ChEMBL document CHEMBL5233262, “Anti-inflammatory activity of naturally occuring diarylheptanoids - A review” (Bioorg Med Chem, 2021)
≈ marks a conversion by molar mass, not a printed value. Each block holds one compound with its values, some of them ahead of it.

Assays:
[1] = tested on: Mus musculus; experiment: Antiinflammatory activity in Dermatophagoides farina induced atopic dermatitis like skin lesions NC/Nga mouse model assessed as inhibition of IL-4 level at 1 %,ip twice a week for 4 weeks by ELISA; type: functional
[2] = Antioxidant activity assessed as nitroblue tetrazolium superoxide radical scavenging activity incubated for 10 mins by spectrophotometric analysis; type: functional
[3] = tested on: Mus musculus; experiment: Antiinflammatory activity in Dermatophagoides farina induced atopic dermatitis like skin lesions NC/Nga mouse model assessed as inhibition of IL-4 level at 0.1 %,ip twice a week for 4 weeks by ELISA; type: functional
[4] = Antiinflammatory activity in human HEK001 cells assessed as inhibition of LPS induced IL-8 production at […] incubated for 24 hrs by ELISA; type: functional; conditions: dose 7.5 µM
[5] = Antiinflammatory activity in human Keratinocytes assessed as inhibition of LPS induced IL-1beta production at […] incubated for 24 hrs by ELISA; type: functional; conditions: Keratinocyte, dose 7.5 µM
[6] = Antiinflammatory activity in human HEK001 cells assessed as inhibition of TNF-alpha induced IL-8 production at […] incubated for 24 hrs by ELISA; type: functional; conditions: dose 7.5 µM
[7] = biological target: Nuclear factor NF-kappa-B complex (Homo sapiens) (UniProt Q00653+P19838+Q04206); experiment: Inhibition of human NF-kappaB p65 binding to DNA in LPS-stimulated human keratinocytes at […] for 30 mins by ELISA; type: cell-based; conditions: Keratinocyte, dose 7.5 µM
Chain of Nuclear factor NF-kappa-B complex (Homo sapiens) (P19838 whole entry, looked up): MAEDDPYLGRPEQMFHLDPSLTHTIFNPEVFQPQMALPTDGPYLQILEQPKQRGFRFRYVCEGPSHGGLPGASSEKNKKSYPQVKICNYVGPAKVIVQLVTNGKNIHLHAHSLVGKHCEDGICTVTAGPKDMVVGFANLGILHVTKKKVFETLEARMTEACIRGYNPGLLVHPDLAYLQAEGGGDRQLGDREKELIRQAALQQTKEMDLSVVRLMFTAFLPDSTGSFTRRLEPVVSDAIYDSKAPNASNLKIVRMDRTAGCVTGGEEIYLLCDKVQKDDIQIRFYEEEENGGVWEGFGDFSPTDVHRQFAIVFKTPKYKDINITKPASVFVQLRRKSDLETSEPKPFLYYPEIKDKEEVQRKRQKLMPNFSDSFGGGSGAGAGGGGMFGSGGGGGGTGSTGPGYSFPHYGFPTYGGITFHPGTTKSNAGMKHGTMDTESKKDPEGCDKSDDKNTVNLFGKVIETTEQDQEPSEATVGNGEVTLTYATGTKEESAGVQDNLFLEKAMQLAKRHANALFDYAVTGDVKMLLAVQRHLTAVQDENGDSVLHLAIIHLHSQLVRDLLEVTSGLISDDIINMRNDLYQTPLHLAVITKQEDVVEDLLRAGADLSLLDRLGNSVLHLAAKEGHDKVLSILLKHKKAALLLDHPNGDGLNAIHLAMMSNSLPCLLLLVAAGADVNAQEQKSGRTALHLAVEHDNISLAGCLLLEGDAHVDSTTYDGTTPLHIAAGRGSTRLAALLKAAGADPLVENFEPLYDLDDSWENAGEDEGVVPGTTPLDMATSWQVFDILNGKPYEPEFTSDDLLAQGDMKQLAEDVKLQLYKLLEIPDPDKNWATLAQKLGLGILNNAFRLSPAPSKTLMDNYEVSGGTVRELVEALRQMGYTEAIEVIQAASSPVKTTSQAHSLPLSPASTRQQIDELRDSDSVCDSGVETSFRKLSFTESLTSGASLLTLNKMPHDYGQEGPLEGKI
Chain of Nuclear factor NF-kappa-B complex (Homo sapiens) (Q00653 whole entry, looked up): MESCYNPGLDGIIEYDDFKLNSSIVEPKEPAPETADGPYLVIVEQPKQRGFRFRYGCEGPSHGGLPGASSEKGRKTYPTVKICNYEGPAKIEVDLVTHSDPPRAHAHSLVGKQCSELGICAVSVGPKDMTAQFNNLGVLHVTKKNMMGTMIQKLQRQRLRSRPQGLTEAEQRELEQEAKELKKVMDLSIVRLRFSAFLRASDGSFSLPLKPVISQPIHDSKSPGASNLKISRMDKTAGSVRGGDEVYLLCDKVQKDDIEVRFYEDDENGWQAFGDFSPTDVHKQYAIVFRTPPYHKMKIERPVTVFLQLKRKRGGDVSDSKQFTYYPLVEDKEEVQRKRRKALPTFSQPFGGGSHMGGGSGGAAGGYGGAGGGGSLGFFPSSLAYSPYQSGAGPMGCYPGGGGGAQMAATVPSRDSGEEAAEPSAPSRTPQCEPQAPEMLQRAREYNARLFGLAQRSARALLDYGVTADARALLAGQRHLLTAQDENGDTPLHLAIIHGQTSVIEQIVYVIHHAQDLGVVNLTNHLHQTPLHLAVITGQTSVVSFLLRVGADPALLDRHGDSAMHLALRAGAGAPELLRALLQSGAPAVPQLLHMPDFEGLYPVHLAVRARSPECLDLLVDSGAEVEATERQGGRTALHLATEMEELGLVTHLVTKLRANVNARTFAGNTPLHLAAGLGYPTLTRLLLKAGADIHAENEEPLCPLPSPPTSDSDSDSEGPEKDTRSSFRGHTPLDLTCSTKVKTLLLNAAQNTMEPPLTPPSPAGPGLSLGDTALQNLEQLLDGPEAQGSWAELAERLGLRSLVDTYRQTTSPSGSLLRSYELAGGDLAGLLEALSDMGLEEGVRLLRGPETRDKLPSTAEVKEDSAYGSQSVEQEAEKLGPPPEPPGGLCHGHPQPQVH
Chain of Nuclear factor NF-kappa-B complex (Homo sapiens) (Q04206 whole entry, looked up): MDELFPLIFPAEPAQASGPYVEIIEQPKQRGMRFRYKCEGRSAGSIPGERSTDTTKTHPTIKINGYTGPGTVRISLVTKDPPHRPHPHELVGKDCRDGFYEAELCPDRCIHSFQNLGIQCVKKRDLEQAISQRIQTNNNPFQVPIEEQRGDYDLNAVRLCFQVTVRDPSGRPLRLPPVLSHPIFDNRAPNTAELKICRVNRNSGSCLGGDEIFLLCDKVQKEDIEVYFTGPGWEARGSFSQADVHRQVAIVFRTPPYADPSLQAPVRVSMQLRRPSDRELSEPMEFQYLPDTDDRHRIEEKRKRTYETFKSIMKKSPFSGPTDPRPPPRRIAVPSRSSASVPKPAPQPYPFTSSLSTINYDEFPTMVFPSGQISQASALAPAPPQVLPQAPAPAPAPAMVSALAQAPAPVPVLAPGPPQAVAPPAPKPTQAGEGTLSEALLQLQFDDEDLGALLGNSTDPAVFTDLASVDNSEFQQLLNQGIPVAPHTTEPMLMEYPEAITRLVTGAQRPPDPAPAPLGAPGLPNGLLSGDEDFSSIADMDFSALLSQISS

[8] = tested on: Mus musculus; experiment: Antiinflammatory activity in Dermatophagoides farina induced atopic dermatitis like skin lesions NC/Nga mouse model assessed as inhibition of IL-5 level at 0.1 %,ip twice a week for 4 weeks by ELISA; type: functional
[9] = tested on: Mus musculus; experiment: Antiinflammatory activity in Dermatophagoides farina induced atopic dermatitis like skin lesions NC/Nga mouse model assessed as inhibition of COX-2 expression level at 1 %,ip twice a week for 4 weeks by RT-PCR analysis; type: functional
[10] = tested on: Mus musculus; experiment: Antiinflammatory activity in Dermatophagoides farina induced atopic dermatitis like skin lesions NC/Nga mouse model assessed as inhibition of iNOS expression level at 0.1 %,ip twice a week for 4 weeks by RT-PCR analysis; type: functional
[11] = tested on: RAW264.7; experiment: Antiinflammatory activity in mouse RAW264.7 cells assessed as inhibition of LPS-induced NO production incubated for 24 hrs by Griess method; type: functional, cell-based; conditions: RAW264.7, 24 h
[12] = tested on: Mus musculus; experiment: Antiinflammatory activity in Dermatophagoides farina induced atopic dermatitis like skin lesions NC/Nga mouse model assessed as inhibition of IL-5 level at 1 %,ip twice a week for 4 weeks by ELISA; type: functional
[13] = Antiinflammatory activity in human HEK001 cells assessed as inhibition of TNF-alpha induced CCL7 production at […] incubated for 24 hrs by ELISA; type: functional; conditions: dose 7.5 µM
[14] = tested on: RAW264.7; experiment: Antiinflammatory activity in mouse RAW264.7 cells assessed as inhibition of LPS-induced NO production preincubated for 0.5 hrs followed by LPS stimulation and measured after 24 hrs by Griess reagent based analysis; type: functional, cell-based
[15] = Antiinflammatory activity in mouse BMDM cells assessed as inhibition of LPS induced IL-1beta secretion at 5 uM; type: functional
[16] = Antiinflammatory activity in human HEK001 cells assessed as inhibition of LPS induced CCL17 production at […] incubated for 24 hrs by ELISA; type: functional; conditions: dose 7.5 µM
[17] = tested on: RAW264.7; experiment: Antiinflammatory activity in mouse RAW264.7 cells assessed as inhibition of LPS-induced NO production incubated for 20 hrs by Griess method; type: functional, cell-based; conditions: RAW264.7, 20 h
[18] = Antiinflammatory activity in human Keratinocytes assessed as inhibition of LPS induced CCL17 production at […] incubated for 24 hrs by ELISA; type: functional; conditions: Keratinocyte, dose 7.5 µM
[19] = tested on: RAW264.7; experiment: Antiinflammatory activity in mouse RAW264.7 cells assessed as inhibition of IFN-gamma and LPS-induced NO production incubated for 24 hrs by Griess assay; type: functional, cell-based; conditions: RAW264.7, 24 h
[20] = Antioxidant activity assessed as DPPH radical scavenging activity incubated for 30 mins by spectrophotometric analysis; type: functional
[21] = tested on: Mus musculus; experiment: Antiinflammatory activity in Dermatophagoides farina induced atopic dermatitis like skin lesions NC/Nga mouse model assessed as inhibition of iNOS expression level at 1 %,ip twice a week for 4 weeks by RT-PCR analysis; type: functional
[22] = tested on: RAW264.7; experiment: Antiinflammatory activity in mouse RAW264.7 cells assessed as inhibition of LPS-induced NF-kappaB activation incubated for 24 hrs by SEAP microplate reader analysis; type: functional, cell-based; conditions: RAW264.7, 24 h
[23] = tested on: RAW264.7; experiment: Antiinflammatory activity in mouse RAW264.7 cells assessed as inhibition of LPS-induced NO production incubated for 24 hrs by Griess reagent based analysis; type: functional, cell-based; conditions: RAW264.7, 24 h
[24] = Antioxidant activity assessed as nitroblue tetrazolium superoxide radical scavenging activity by spectrophotometric analysis; type: functional
[25] = tested on: RAW264.7; experiment: Antiinflammatory activity in mouse RAW264.7 cells assessed as inhibition of LPS-induced TNFalpha production preincubated for 1 hr followed by LPS stimulation and measured after 18 hrs by immunoassay; type: functional, cell-based
[26] = Antiinflammatory activity in human HEK001 cells assessed as inhibition of TNF-alpha induced PGE2 production at […] incubated for 24 hrs by ELISA; type: functional; conditions: dose 7.5 µM
[27] = Antiinflammatory activity in human HEK001 cells assessed as inhibition of LPS induced IL-1beta production at […] incubated for 24 hrs by ELISA; type: functional; conditions: dose 7.5 µM
[28] = Antiinflammatory activity in human Keratinocytes assessed as inhibition of LPS induced ERK production at […] incubated for 24 hrs by ELISA; type: functional; conditions: Keratinocyte, dose 7.5 µM
[29] = tested on: Mus musculus; experiment: Antiinflammatory activity in Dermatophagoides farina induced atopic dermatitis like skin lesions NC/Nga mouse model assessed as inhibition of COX-2 expression level at 0.1 %,ip twice a week for 4 weeks by RT-PCR analysis; type: functional
[30] = Antiinflammatory activity in human HEK001 cells assessed as inhibition of TNF-alpha induced NO production incubated for 24 hrs at […] by Griess reagent based analysis; type: functional; conditions: dose 7.5 µM
[31] = tested on: RAW264.7; experiment: Antiinflammatory activity in mouse RAW264.7 cells assessed as inhibition of LPS-induced NO production preincubated for 1 hrs followed by LPS stimulation and measured after 24 hrs by Griess reagent based analysis; type: functional, cell-based
[32] = tested on: RAW264.7; experiment: Antiinflammatory activity against mouse RAW264.7 cells assessed as inhibition of IFN-gamma and LPS-induced COX2 production preincubated for 2 hrs followed by IFN-gamma and LPS stimulation and measured after 16 hrs by spectrophotometric analysis; type: functional, cell-based
[33] = Cytotoxicity against mouse RAW264.7 cells assessed as reduction in cell viability by MTT assay; type: toxicity, cell-based
[34] = tested on: J774.A1; experiment: Antiinflammatory activity in mouse J774.A1 cells assessed as inhibition of LPS-induced IL-6 production at 10 microg/ml preincubated for 30 mins followed by LPS stimulation and measured after 2 hrs by Griess reagent based analysis; type: functional; conditions: J774.A1, 2.5 h, time 150 min
[35] = tested on: J774.A1; experiment: Antiinflammatory activity in mouse J774.A1 cells assessed as inhibition of LPS-induced TNF-alpha production at 10 microg/ml preincubated for 30 mins followed by LPS stimulation and measured after 2 hrs by Griess reagent based analysis; type: functional; conditions: J774.A1, 2.5 h, time 150 min
[36] = Antioxidant activity assessed as ABTS radical scavenging activity measured after 6 mins; type: functional
[37] = Antioxidant activity assessed as hydroxyl radical scavenging activity; type: functional
[38] = Antioxidant activity assessed as DPPH radical scavenging activity; type: functional
[39] = tested on: J774.A1; experiment: Antiinflammatory activity in mouse J774.A1 cells assessed as inhibition of LPS-induced NO production incubated for 24 hrs by Griess reagent based analysis; type: functional, cell-based; conditions: J774.A1, 24 h
[40] = tested on: Mus musculus; experiment: Antiinflammatory activity in ICR mouse model of TPA-induced ear edema assessed as inhibition of ear inflammation at 1 mg,TOP for 30 mins followed by TPA addition and measured after 6 hrs; type: functional; conditions: time 390 min, 6.5 h
[41] = tested on: RAW264.7; experiment: Antiinflammatory activity in mouse RAW264.7 cells assessed as inhibition of LPS-induced NO production at 30 uM preincubated for 0.5 hrs followed by LPS stimulation and measured after 24 hrs by Griess reagent based analysis; type: functional; conditions: time 24.5 hrs
[42] = tested on: RAW264.7; experiment: Cytotoxicity against mouse RAW264.7 cells assessed as reduction in cell viability at 30 uM by MTT assay; type: toxicity, cell-based; conditions: raw264.7, 30 µM

IC50 [2]: 16.8 µM | inhibition [7]: 29.5% | IC50 [11]: 14.1 µM | IC50 [14]: 5 µM | IC50 [17]: 0.8 µM | IC50 [19]: 27.2 µg/mL (≈ 82.8 µM) | IC50 [20]: 13.4 µM | IC50 [22]: > 100 µM | IC50 [23]: > 100 µM | IC50 [24]: 17.6 µM | IC50 [25]: > 100 µM | IC50 [31]: 5.8 µM | IC50 [32]: 25 µg/mL (≈ 76.1 µM)
Structure (SMILES): O=C(/C=C/CCc1ccc(O)c(O)c1)CCc1ccc(O)c(O)c1 [DEHYDROHIRSUTANONOL]
inhibition (INH) [1]: 60% | inhibition (INH) [3]: 51% | inhibition at […] [4]: 40% | inhibition at […] [5]: 39% | inhibition at […] [6]: 33% | inhibition (INH) [8]: 37% | inhibition (INH) [9]: 62% | inhibition (INH) [10]: 61% | inhibition (INH) [12]: 74% | inhibition at […] [13]: 43% | inhibition at 5 µM [15]: 73.4% | inhibition at […] [16]: 51% | inhibition at […] [18]: 49% | inhibition (INH) [21]: 73% | inhibition at […] [26]: 46% | inhibition at […] [27]: 39% | inhibition at […] [28]: 37% | inhibition (INH) [29]: 57% | inhibition at […] [30]: 37% | IC50 [33]: 39 µM

IC50 [14]: 10 µM | IC50 [19]: 29.4 µg/mL (≈ 57.8 µM) | IC50 [32]: 33.7 µg/mL (≈ 66.3 µM)
Structure (SMILES): O=C(CCc1ccc(O)c(O)c1)C[C@H](CCc1ccc(O)c(O)c1)O[C@@H]1O[C@H](CO)[C@@H](O)[C@H](O)[C@H]1O
inhibition at 10 µg/mL [34]: 75% | inhibition at 10 µg/mL [35]: 51%

IC50 [36]: 23.3 µM | IC50 [20]: 24.8 µM | IC50 [37]: 47 µg/mL (≈ 267 µM) | IC50 [38]: 58 µg/mL (≈ 329 µM) | IC50 [39]: > 100 µM
Structure (SMILES): O=C1O[C@H]([C@@H](O)CO)C(O)=C1O [ASCORBIC ACID]

IC50 [20]: 44.4 µM | IC50 [31]: 27.8 µM
Structure (SMILES): Oc1ccc(CCCC[C@@H](O)CCc2ccc(O)cc2)cc1
ID50 [40]: 0.66 mg | inhibition at 30 µM [41]: 29% | Activity [42]: 52%
